Source: patent EP3030673B1, “SCREENING AND IDENTIFICATION OF RESISTANT MARKERS IN CRUSTACEAN” (priority 2013, dated 2015)
Like-named read-outs stand apart in the source and are kept apart here.

Legend:
Type in all cases: in vivo, Lepeophtheirus salmonis
[1] = system: LsVikna (pyrethroid resistant strain); assay: Deltamethrin bioassay on adult male sea lice, pyrethroid resistant strain
From the text: (§1) In order to investigate the inheritance and mechanism of pyrethroid resistance in L. salmonis, two strains (sensitive and resistant) and their reciprocal hybrids were used for a two-generation breeding experiment complimented with bioassays to measure tolerance (Fig. 2). The pyrethroid sensitive strain (hereon also referred to as LsGulen) was collected in June 2006 from newly slaughtered rainbow trout from Gulen in western Norway. The pyrethroid resistant strain (hereon also referred to as LsVikna) was collected in February 2009 from a salmon farm in Vikna, North Trøndelag, Norway. The resistant strain was collected on the basis of suspected reduced sensitivity to pyrethroids due to the fact that there had been reported a treatment failure on the farm from which it was collected. This was subsequently confirmed in bioassays with LsGulen as sensitive control.
(§2) Each strain, including both types of hybrids obtained in example 1 were quantified in their tolerance of deltamethrin at sampling points 1 and 2 representing the F1 and F2 generations for the hybrids (Fig. 1 and 2). Bioassays were performed according to standard guidelines (SEARCH Consortium, 2006, Sea lice resistance to chemotherapeutants: A handbook in resistance management. 2 ed.), with minor modifications. Only adult male lice were used for the bioassay, which after sampling (at 55 or 56 dpi) had been incubated overnight in running seawater (ca. 10 °C). The 30 min exposure to the prepared deltamethrin concentration was also carried out at ca. 10 °C, and higher concentrations than those described in the given protocol were included (Table S3). After exposure to deltamethrin, the lice were kept in running seawater (24 h at ca. 10 °C) until evaluation of the bioassays. […] EC50 values were calculated using probit analysis (PoloPlus 2.0; LeOra Software, CA, USA). Table 3a. […]

[2] = system: LsGulen (pyrethroid sensitive strain)
From the text: as §1, §2

[3] = system: LsHybridG (LsGulen as its maternal strain)
Experimental: (§3) In order to hybridise the lice strains for the inheritance experiment, the parental strains were first synchronised and multiplied up in numbers by simultaneously infecting 20 Atlantic salmon with copepods. In total, 1000 copepods per strain were added. At 32 days post infection (dpi), all salmon were anaesthetised and approximately half of the lice were carefully removed using tweezers. At this stage, lice were predominantly preadult 2 females and adult males, with a few percent adult females and preadult 2 males. The lice removed from the salmon were sexed, and then used to create the reciprocal hybrid strains. This was achieved by combining 4-5 females from the resistant strain and 4-5 males from the sensitive strain (LsHybridV), and 4-5 females from the sensitive strain and 4-5 males from the resistant strain (LsHybridG). Only preadult 2 females were used. These combinations were each placed into 2 replicate tanks in order to make two hybrid strains (4 groups and 8 tanks at this stage). At 67-68 dpi, all lice were removed from the four strains. Egg strings were removed from adult females and incubated in containers containing a single strain each. The number of adult lice, and harvested egg strings varied, but all were incubated (Table 2). Table 2. Number of egg strings collected from each strain. Egg strings from replicate tanks were pooled. Most egg strings were part of a pair.
(§4) The subsequent generation (F2, Fig. 2) were both produced using the general procedure described above, although the hybrid strains were only crossed back to themselves to create multiple generation-hybrids. Collection of egg strings, which marked the establishment of a new generation, was done at 55 and 56 dpi respectively. Salmon that hosted the previous generation were re-used for reinfection with the next generation, but hosted only the same experimental strain.
(§5) Each strain, including both types of hybrids obtained in example 1 were quantified in their tolerance of deltamethrin at sampling points 1 and 2 representing the F1 and F2 generations for the hybrids (Fig. 1 and 2). Bioassays were performed according to standard guidelines (SEARCH Consortium, 2006, Sea lice resistance to chemotherapeutants: A handbook in resistance management. 2 ed.), with minor modifications. Only adult male lice were used for the bioassay, which after sampling (at 55 or 56 dpi) had been incubated overnight in running seawater (ca. 10 °C). The 30 min exposure to the prepared deltamethrin concentration was also carried out at ca. 10 °C, and higher concentrations than those described in the given protocol were included (Table S3). After exposure to deltamethrin, the lice were kept in running seawater (24 h at ca. 10 °C) until evaluation of the bioassays. […] EC50 values were calculated using probit analysis (PoloPlus 2.0; LeOra Software, CA, USA). Table 3a. Deltamethrin bioassays performed on sampling set 1

[4] = system: LsHybridV (LsVikna as its maternal strain); assay: Deltamethrin bioassay on adult male sea lice, hybrid strain with resistant maternal strain
Experimental: as §3, §4, §5

`CC1(C)[C@H](C(=O)O[C@H](C#N)c2cccc(Oc3ccccc3)c2)[C@@H]1C=C(Br)Br` [Deltamethrin, deltamethrin] was tested, and the “survival of the bioassay” value ([1]; above 1 ppb, resistant strain) was “survived the bioassay”, the “% Inactive” value ([1]; sampling set 1, F6, fish tank 05, dose 0.1 ppb) was 0% and the “% Inactive” value ([1]; sampling set 1, F6, fish tank 05, dose 0.3 ppb) was 0%. For the same molecule, the “% Inactive” value ([1]; sampling set 1, F6, fish tank 05, dose 1 ppb) was 12%, the “% Inactive” value ([1]; sampling set 1, F6, fish tank 05, dose 3 ppb) was 27% and the “% Inactive” value ([1]; sampling set 1, F6, fish tank 05, dose 6 ppb) was 35%. The “% Inactive” value ([1]; sampling set 1, F6, fish tank 05, dose 12 ppb) was 41%, the “% Inactive” value ([1]; sampling set 1, F6, fish tank 09, dose 0.1 ppb) was 4% and the “% Inactive” value ([1]; sampling set 1, F6, fish tank 09, dose 0.3 ppb) was 0%. For the same molecule, the “% Inactive” value ([1]; sampling set 1, F6, fish tank 09, dose 1 ppb) was 10%, the “% Inactive” value ([1]; sampling set 1, F6, fish tank 09, dose 3 ppb) was 19% and the “% Inactive” value ([1]; sampling set 1, F6, fish tank 09, dose 6 ppb) was 23%. The “% Inactive” value ([1]; sampling set 1, F6, fish tank 09, dose 12 ppb) was 28%, the “% Inactive” value ([1]; sampling set 2, F7, fish tank 08, dose 0.1 ppb) was 0% and the “% Inactive” value ([1]; sampling set 2, F7, fish tank 08, dose 0.3 ppb) was 0%. For the same molecule, the “% Inactive” value ([1]; sampling set 2, F7, fish tank 08, dose 0.5 ppb) was 0%, the “% Inactive” value ([1]; sampling set 2, F7, fish tank 08, dose 1 ppb) was 0% and the “% Inactive” value ([1]; sampling set 2, F7, fish tank 08, dose 3 ppb) was 6%. The “% Inactive” value ([1]; sampling set 2, F7, fish tank 08, dose 6 ppb) was 18%, the “% Inactive” value ([1]; sampling set 2, F7, fish tank 08, dose 12 ppb) was 0% and the “% Inactive” value ([1]; sampling set 2, F7, fish tank 08, dose 20 ppb) was 39%. The mortality ([2]; above 1 ppb, sensitive strain) was 100%, the “% Inactive” value ([2]; sampling set 1, F15, fish tank 04, dose 0.1 ppb) was 0% and the “% Inactive” value ([2]; sampling set 1, F15, fish tank 04, dose 0.3 ppb) was 48%. The “% Inactive” value ([2]; sampling set 1, F15, fish tank 04, dose 1 ppb) was 100%, the “% Inactive” value ([2]; sampling set 1, F15, fish tank 04, dose 3 ppb) was 100% and the “% Inactive” value ([2]; sampling set 1, F15, fish tank 04, dose 6 ppb) was 100%. For the same molecule, the “% Inactive” value ([2]; sampling set 1, F15, fish tank 04, dose 12 ppb) was 100%, the “% Inactive” value ([2]; sampling set 1, F15, fish tank 10, dose 0.1 ppb) was 0% and the “% Inactive” value ([2]; sampling set 1, F15, fish tank 10, dose 0.3 ppb) was 50%. For the same molecule, the “% Inactive” value ([2]; sampling set 1, F15, fish tank 10, dose 1 ppb) was 100%, the “% Inactive” value ([2]; sampling set 1, F15, fish tank 10, dose 3 ppb) was 100% and the “% Inactive” value ([2]; sampling set 1, F15, fish tank 10, dose 6 ppb) was 100%. For the same molecule, the “% Inactive” value ([2]; sampling set 1, F15, fish tank 10, dose 12 ppb) was 100%, the “% Inactive” value ([2]; sampling set 2, F16, fish tank 03, dose 0.1 ppb) was 5% and the “% Inactive” value ([2]; sampling set 2, F16, fish tank 03, dose 0.3 ppb) was 48%. The “% Inactive” value ([2]; sampling set 2, F16, fish tank 03, dose 0.5 ppb) was 86%, the “% Inactive” value ([2]; sampling set 2, F16, fish tank 03, dose 1 ppb) was 100% and the “% Inactive” value ([2]; sampling set 2, F16, fish tank 03, dose 3 ppb) was 100%. The “% Inactive” value ([2]; sampling set 2, F16, fish tank 03, dose 6 ppb) was 100%, the “% Inactive” value ([2]; sampling set 2, F16, fish tank 04, dose 0.1 ppb) was 8% and the “% Inactive” value ([2]; sampling set 2, F16, fish tank 04, dose 0.3 ppb) was 55%. For the same molecule, the “% Inactive” value ([2]; sampling set 2, F16, fish tank 04, dose 0.5 ppb) was 95%, the “% Inactive” value ([2]; sampling set 2, F16, fish tank 04, dose 1 ppb) was 100% and the “% Inactive” value ([2]; sampling set 2, F16, fish tank 04, dose 3 ppb) was 100%. The “% Inactive” value ([2]; sampling set 2, F16, fish tank 04, dose 6 ppb) was 100%, the “% Inactive” value ([2]; sampling set 2, F16, fish tank 04, dose 12 ppb) was 100% and the mortality ([3]; above 1 ppb, maternal hybrid strain of the sensitive strain) was 100%. For the same molecule, the “% Inactive” value ([3]; sampling set 1, F1, fish tank 01, dose 0.1 ppb) was 0%, the “% Inactive” value ([3]; sampling set 1, F1, fish tank 01, dose 0.3 ppb) was 21% and the “% Inactive” value ([3]; sampling set 1, F1, fish tank 01, dose 1 ppb) was 100%. For the same molecule, the “% Inactive” value ([3]; sampling set 1, F1, fish tank 01, dose 3 ppb) was 100%, the “% Inactive” value ([3]; sampling set 1, F1, fish tank 01, dose 6 ppb) was 100% and the “% Inactive” value ([3]; sampling set 1, F1, fish tank 01, dose 12 ppb) was 100%. For the same molecule, the “% Inactive” value ([3]; sampling set 1, F1, fish tank 07, dose 0.1 ppb) was 18%, the “% Inactive” value ([3]; sampling set 1, F1, fish tank 07, dose 0.3 ppb) was 32% and the “% Inactive” value ([3]; sampling set 1, F1, fish tank 07, dose 1 ppb) was 100%. For the same molecule, the “% Inactive” value ([3]; sampling set 1, F1, fish tank 07, dose 3 ppb) was 100%, the “% Inactive” value ([3]; sampling set 1, F1, fish tank 07, dose 6 ppb) was 100% and the “% Inactive” value ([3]; sampling set 1, F1, fish tank 07, dose 12 ppb) was 100%. For the same molecule, the “% Inactive” value ([3]; sampling set 2, F2, fish tank 07, dose 0.1 ppb) was 0%, the “% Inactive” value ([3]; sampling set 2, F2, fish tank 07, dose 0.3 ppb) was 50% and the “% Inactive” value ([3]; sampling set 2, F2, fish tank 07, dose 0.5 ppb) was 85%. The “% Inactive” value ([3]; sampling set 2, F2, fish tank 07, dose 1 ppb) was 90%, the “% Inactive” value ([3]; sampling set 2, F2, fish tank 07, dose 3 ppb) was 100% and the “% Inactive” value ([3]; sampling set 2, F2, fish tank 07, dose 6 ppb) was 100%. The “% Inactive” value ([3]; sampling set 2, F2, fish tank 07, dose 12 ppb) was 100%, the “% Inactive” value ([3]; sampling set 2, F2, fish tank 07, dose 20 ppb) was 100% and the “% Inactive” value ([3]; sampling set 2, F2, fish tank 10, dose 0.1 ppb) was 5%. For the same molecule, the “% Inactive” value ([3]; sampling set 2, F2, fish tank 10, dose 0.3 ppb) was 43%, the “% Inactive” value ([3]; sampling set 2, F2, fish tank 10, dose 0.5 ppb) was 72% and the “% Inactive” value ([3]; sampling set 2, F2, fish tank 10, dose 1 ppb) was 100%. The “% Inactive” value ([3]; sampling set 2, F2, fish tank 10, dose 3 ppb) was 100%, the “% Inactive” value ([3]; sampling set 2, F2, fish tank 10, dose 6 ppb) was 100% and the “% Inactive” value ([3]; sampling set 2, F2, fish tank 10, dose 12 ppb) was 100%. For the same molecule, the “% Inactive” value ([3]; sampling set 2, F2, fish tank 10, dose 20 ppb) was 100%, the “survival of the bioassay” value ([4]; above 1 ppb, maternal hybrid strain of the resistant strain) was “survived the bioassay” and the “% Inactive” value ([4]; sampling set 1, F1, fish tank 02, dose 0.1 ppb) was 0%. For the same molecule, the “% Inactive” value ([4]; sampling set 1, F1, fish tank 02, dose 0.3 ppb) was 0%, the “% Inactive” value ([4]; sampling set 1, F1, fish tank 02, dose 1 ppb) was 5% and the “% Inactive” value ([4]; sampling set 1, F1, fish tank 02, dose 3 ppb) was 13%. The “% Inactive” value ([4]; sampling set 1, F1, fish tank 02, dose 6 ppb) was 5%, the “% Inactive” value ([4]; sampling set 1, F1, fish tank 02, dose 12 ppb) was 31% and the “% Inactive” value ([4]; sampling set 1, F1, fish tank 06, dose 0.1 ppb) was 0%. For the same molecule, the “% Inactive” value ([4]; sampling set 1, F1, fish tank 06, dose 0.3 ppb) was 0%, the “% Inactive” value ([4]; sampling set 1, F1, fish tank 06, dose 1 ppb) was 7% and the “% Inactive” value ([4]; sampling set 1, F1, fish tank 06, dose 3 ppb) was 2%. The “% Inactive” value ([4]; sampling set 1, F1, fish tank 06, dose 6 ppb) was 9%, the “% Inactive” value ([4]; sampling set 1, F1, fish tank 06, dose 12 ppb) was 32% and the “% Inactive” value ([4]; sampling set 2, F2, fish tank 06, dose 0.1 ppb) was 0%. The “% Inactive” value ([4]; sampling set 2, F2, fish tank 06, dose 0.3 ppb) was 0%, the “% Inactive” value ([4]; sampling set 2, F2, fish tank 06, dose 0.5 ppb) was 0% and the “% Inactive” value ([4]; sampling set 2, F2, fish tank 06, dose 1 ppb) was 0%. The “% Inactive” value ([4]; sampling set 2, F2, fish tank 06, dose 3 ppb) was 16%, the “% Inactive” value ([4]; sampling set 2, F2, fish tank 06, dose 6 ppb) was 14% and the “% Inactive” value ([4]; sampling set 2, F2, fish tank 06, dose 12 ppb) was 21%. For the same molecule, the “% Inactive” value ([4]; sampling set 2, F2, fish tank 06, dose 20 ppb) was 40%, the “% Inactive” value ([4]; sampling set 2, F2, fish tank 09, dose 0.1 ppb) was 14% and the “% Inactive” value ([4]; sampling set 2, F2, fish tank 09, dose 0.3 ppb) was 0%. For the same molecule, the “% Inactive” value ([4]; sampling set 2, F2, fish tank 09, dose 0.5 ppb) was 3%, the “% Inactive” value ([4]; sampling set 2, F2, fish tank 09, dose 1 ppb) was 5% and the “% Inactive” value ([4]; sampling set 2, F2, fish tank 09, dose 3 ppb) was 0%. The “% Inactive” value ([4]; sampling set 2, F2, fish tank 09, dose 6 ppb) was 19%, the “% Inactive” value ([4]; sampling set 2, F2, fish tank 09, dose 12 ppb) was 8% and the “% Inactive” value ([4]; sampling set 2, F2, fish tank 09, dose 20 ppb) was 54%.
